Data reported in the supplement of paper PMC8882468.
± gives the standard deviation of the averaged measurements.

Key:
Test in all cases: CTG-3D luminescence at 96 h relative to day-0 seeding control (ratio to day 0); higher = more growth / less cytotoxicity; PDxO 3D drug screen, 96 h, CTG-3D normalised to day-0 seeding control.
HCI-008 = test system: HCI-008 (organoid from a HER2-enriched breast cancer xenograft)
HCI-002 = test system: HCI-002 (organoid from a triple-negative breast cancer xenograft)
HCI-017.E2 = test system: HCI-017.E2 (organoid from an ER-positive breast cancer xenograft)
HCI-023 = test system: HCI-023 (organoid from a triple-negative breast cancer xenograft)
HCI-024 = test system: HCI-024 (organoid from a breast cancer xenograft)

Cc1cc(Nc2ncc(Cl)c(Nc3ccccc3S(=O)(=O)C(C)C)n2)c(OC(C)C)cc1C1CCNCC1 [ceritinib]
CTG-3D luminescence at 96 h
Settings | 12.5 pM | 0.00025 µM | 0.005 µM | 0.1 µM | 1 µM | 10 µM | 100 µM | 625 fM
HCI-002, days in culture: 62 | 2.84 | 2.62 | 3.08 | 2.52 | 2.11 | 0.00947 | -0.00984 | 3.15
HCI-002, days in culture: 82 | 3.23 | 2.64 | 2.18 | 2.46 | 1.76 | 0.00838 | -0.0057 | 2.72
HCI-002, days in culture: 91 | 4.25 | 3.86 | 3.52 | 4.11 | 3.29 | 0.00341 | -0.0215 | 4.18
HCI-002, days in culture: 191 | 2.47 | 2.8 | 2.59 | 2.41 | 2.23 | 0.00759 | -0.00732 | 2.72
HCI-002, days in culture: 209 | 2.4 | 2.59 | 2.23 | 2.14 | 2.03 | 0.00677 | -0.00747 | 2.35
HCI-002, days in culture: 227 | 6.1 | 6.52 | 5.45 | 5.99 | 4.45 | -0.223 | -0.242 | 7.25
HCI-008, days in culture: 228 | 1.69 ± 0.45 | 1.81 ± 0.11 | 1.55 ± 0.49 | 1.3 ± 0.59 | 1.15 ± 0.37 | -0.138 ± 0.21 | -0.142 ± 0.2 | 1.59 ± 0.23
HCI-008, days in culture: 244 | 1.42 | 1.74 | 1.85 | 1.55 | 1.47 | 0.0065 | -0.00443 | 2.17
HCI-017.E2, days in culture: 85 | 2.65 | 2.49 | 2.67 | 2.69 | 2.49 | 0.446 | -0.00537 | 2.49
HCI-023, days in culture: 111 | 1.47 | 1.19 | 1.18 | 1.12 | 0.844 | 0.00455 | -0.00268 | 1.19
HCI-023, days in culture: 128 | 1.39 ± 0.21 | 1.2 ± 0.45 | 1.17 ± 0.21 | 1.65 ± 0.042 | 0.92736 ± 0.00061 | 0.00417 ± 0.0011 | -0.00332 ± 0.00062 | 1.65 ± 0.49
HCI-024, days in culture: 105 | 1.05 | 1.3 | 1.22 | 1.29 | 1.11 | 0.00435 | -0.0037 | 1.39
HCI-024, days in culture: 122 | 1.49 | 2.05 | 1.23 | 1.88 | 1.16 | 0.00674 | -0.00377 | 2.07
HCI-024, days in culture: 163 | 2.38 | 2.03 | 1.59 | 2.47 | 1.74 | 0.107 | -0.00554 | 2.78

HCI-017.E2
Settings | CTG-3D luminescence at 96 h
12.5 pM | 1.94 ± 0.52
0.00025 µM | 2.16 ± 0.13
0.005 µM | 2.23 ± 0.49
0.1 µM | 2.22 ± 0.29
1 µM | 1.988 ± 0.013
10 µM | 0.0699 ± 0.078
100 µM | -0.00443 ± 0.0012
625 fM | 2.22 ± 0.34

O=C(c1ccc(F)c(F)c1Nc1ccc(I)cc1F)N1CC(O)([C@@H]2CCCCN2)C1 [cobimetinib]
CTG-3D luminescence at 96 h
Settings | 12.5 pM | 0.00025 µM | 0.005 µM | 0.1 µM | 1 µM | 10 µM | 100 µM | 625 fM
HCI-002, days in culture: 62 | 2.96 | 2.54 | 2.87 | 1.97 | 1.32 | 0.777 | -0.0104 | 3.02
HCI-002, days in culture: 82 | 3.18 | 3.07 | 2.39 | 1.88 | 1.72 | 0.519 | -0.0137 | 3.03
HCI-002, days in culture: 91 | 3.83 | 3.46 | 2.9 | 2.74 | 1.55 | 0.722 | -0.0112 | 3.97
HCI-002, days in culture: 191 | 2.68 | 2.52 | 2.54 | 1.88 | 1.67 | 0.799 | -0.00417 | 2.65
HCI-002, days in culture: 209 | 2.44 | 2.32 | 2.11 | 1.78 | 1.43 | 0.589 | -0.00565 | 2.4
HCI-002, days in culture: 227 | 5.23 | 5.25 | 4.79 | 4.53 | 2.78 | 1.04 | -0.0104 | 5.77
HCI-008, days in culture: 228 | 1.65 ± 0.23 | 1.7 ± 0.1 | 1.33 ± 0.13 | 1.14 ± 0.47 | 1.11 ± 0.17 | 1 ± 0.69 | -0.00126 ± 0.003 | 1.7 ± 0.47
HCI-008, days in culture: 244 | 1.27 | 1.9 | 1.87 | 1.57 | 1.1 | 1.08 | 0.000182 | 2.25
HCI-017.E2, days in culture: 85 | 3.27 | 2.34 | 2.34 | 2.15 | 1.65 | 2.15 | 0.017 | 2.45
HCI-023, days in culture: 111 | 1.18 | 1.25 | 1.15 | 1.13 | 0.75 | 0.349 | -0.00131 | 1.06
HCI-023, days in culture: 128 | 1.67 ± 0.072 | 1.44 ± 0.4 | 1.83 ± 0.48 | 1.63 ± 0.14 | 0.769 ± 0.079 | 0.338 ± 0.099 | -0.000598 ± 0.00044 | 1.65 ± 0.51
HCI-024, days in culture: 105 | 1.71 | 1.74 | 1.38 | 1.36 | 0.803 | 0.316 | -0.00552 | 2.08
HCI-024, days in culture: 122 | 2.66 | 2.28 | 2.13 | 1.03 | 0.873 | 0.979 | -0.000547 | 3.01
HCI-024, days in culture: 163 | 1.51 | 2.19 | 1.89 | 2.26 | 1.17 | 0.872 | -0.0079 | 2.15

HCI-017.E2
Settings | CTG-3D luminescence at 96 h
12.5 pM | 1.77 ± 0.36
0.00025 µM | 2.11 ± 0.29
0.005 µM | 2.18 ± 0.27
0.1 µM | 1.89 ± 0.2
1 µM | 1.889 ± 0.0077
10 µM | 1.57 ± 0.049
100 µM | 0.00898 ± 0.0081
625 fM | 2.01 ± 0.47

C[C@H](NC(=O)CCC(F)(F)F)C(=O)N[C@@H]1C(=O)N(CCO)c2ncccc2-c2ccccc21 [crenigacestat]
CTG-3D luminescence at 96 h
Settings | 12.5 pM | 0.00025 µM | 0.005 µM | 0.1 µM | 1 µM | 10 µM | 100 µM | 625 fM
HCI-002, days in culture: 62 | 2.87 | 2.47 | 2.56 | 2.68 | 2.3 | 2.72 | 2.8 | 2.91
HCI-002, days in culture: 82 | 3.27 | 3.18 | 2.46 | 2.78 | 2.76 | 2.69 | 2.21 | 2.76
HCI-002, days in culture: 91 | 3.89 | 3.6 | 2.93 | 3.44 | 3.36 | 3.56 | 2.88 | 3.82
HCI-002, days in culture: 191 | 2.59 | 2.32 | 2.2 | 2.19 | 2.46 | 2.35 | 2.4 | 2.36
HCI-002, days in culture: 209 | 2.47 | 2.47 | 2.22 | 1.91 | 2.27 | 1.93 | 2.41 | 2.29
HCI-002, days in culture: 227 | 5.37 | 5.77 | 5.03 | 5.6 | 4.74 | 4.97 | 3.7 | 4.95
HCI-008, days in culture: 228 | 1.8 ± 0.26 | 1.66 ± 0.04 | 1.56 ± 0.66 | 1.47 ± 0.48 | 1.73 ± 0.47 | 1.7 ± 0.035 | 1.65 ± 0.22 | 1.9 ± 0.12
HCI-008, days in culture: 244 | 1.23 | 1.65 | 1.55 | 1.79 | 1.38 | 1.57 | 1.38 | 1.79
HCI-017.E2, days in culture: 85 | 2.43 | 2.96 | 2.49 | 2.05 | 1.89 | 1.57 | 2.02 | 3.08
HCI-023, days in culture: 111 | 1.05 | 1.15 | 1.17 | 0.954 | 0.7 | 1.28 | 0.926 | 1.3
HCI-023, days in culture: 128 | 1.4 ± 0.13 | 1.35 ± 0.62 | 1.31 ± 0.068 | 1.51 ± 0.061 | 1.05 ± 0.19 | 1.52 ± 0.16 | 1.13 ± 0.32 | 1.53 ± 0.55
HCI-024, days in culture: 105 | 1.19 | 1.65 | 1.35 | 1.59 | 2.01 | 1.98 | 1.62 | 1.56
HCI-024, days in culture: 122 | 1.95 | 1.76 | 1.92 | 1.72 | 1.97 | 2.75 | 2 | 2.55
HCI-024, days in culture: 163 | 1.93 | 2.2 | 2.01 | 2.48 | 2.19 | 2.38 | 1.88 | 1.86

HCI-017.E2
Settings | CTG-3D luminescence at 96 h
12.5 pM | 1.98 ± 0.17
0.00025 µM | 2.37 ± 0.17
0.005 µM | 2.22 ± 0.31
0.1 µM | 1.95 ± 0.11
1 µM | 1.876 ± 0.007
10 µM | 1.78 ± 0.18
100 µM | 1.78 ± 0.23
625 fM | 2.32 ± 0.025
